From patent publication US20260272851A1, “FORMULATION COMPRISING APOCYNIN AND PAEONOL” (AKL Research & Development Ltd, priority 2022, published 2026) come the findings set out here.

“And” between values parts separate entries of the source, which are not always exact repeats. Equal entries are not always repeated.

What all share (type): cell-based
The test system of series [1] is human TC28a2 chondrocyte cells. As to the kind of experiment: SA-β-Gal activity by FDG flow cytometry in TC28a2 cells exposed to IL-6 or etoposide. To be noted: Basal = 1.
Procedure: The immortalized human juvenile chondrocyte cell line T/C28a2 (25), was used in some experiments.
(§1) Cells were plated at a density of 5×10^4 cells/well in Corning® CellBIND® multiwell 96 plates (MW 96) (Corning, NY, USA) or 1.8×10^5 cells/well in MW 12 plates (Corning, NY, USA) for analysis. Cells were left to equilibrate overnight in DMEM at 5% or 2% of FBS in 5% CO2 at 37° C.
(§2) The effect of APPA on number of senescent cells was therefore evaluated by the quantification of β-galactosidase activity using flow cytometry. β-galactosidase activity was detected using fluorescein di-β-D-galactopyranoside (FDG; Thermo Fisher, Waltham, MA, USA) by flow cytometry. Non-fluorescent FDG is sequentially hydrolysed by β-galactosidase, first to fluorescein monogalactoside and then to highly fluorescent fluorescein. Enzyme-mediated hydrolysis of FDG can be followed by the increase in fluorescence.
These conditions were evaluated with and without 10 μg/ml APPA for 24 h. […] At the end of incubation, cultures were washed with PBS, resuspended by trypsinization and analysed immediately using a FACScalibour flow cytometer (Becton Dickinson). Data were acquired and analysed with Cellquest software (Becton Dickinson). Each fluorescein signal was measured on an FL1 detector and β-galactosidase activity was estimated using the median fluorescence intensity (arbitrary units) of the cell population.
Series [2] has as its system human TC28a2 chondrocyte cells. The experiment in a line: DRAQ7 chondrocyte viability assay (flow cytometry). To be noted: 24 h. The protocol: A novel cell viability assay uses DRAQ7, a marker of apoptosis, necrosis and dead cells. DRAQ7 stains the nuclei in dead and permeabilised cells but not in intact live cells.
To determine the effects of APPA (10 μg/ml) AP (2.3 and 10 μg/ml) and PA (7.7 and 10 μg/ml) on chondrocyte viability, an assay based on DRAQ7™ (Thermo Fisher Scientific) was used. DRAQ7™ is a dye that can be used to show apoptosis, necrosis and dead cells, and the assay includes staining of nuclei in dead and permeabilised cells but not staining of intact live cells.
For the assay, cells were grown in flasks due to higher number of cells required. Following 24 h of different treatments, cells were trypsinised and centrifuged at 1500 rpm for 10 minutes (min). The harvested cells were suspended in 3 µM of the fluorescent dye DRAQ7™ (Thermo Fisher) and incubated in the dark, at room temperature (rt) for 10 min. The samples were run on CytoFLex flow cytometer (Beckman Coulter Inc. Ca, USA). At least 1×10^4 cells per assay were measured. Data were analysed using CyExpert V 2.5 software (Beckman Coulter Inc). […] To establish the position of DRAQ7− and DRAQ7+ gates, one of each negative and positive control was stained with DRAQ7 dye and the other with PBS alone (data not shown).

Series [3] concerns primary human chondrocytes. The experiment in a line: SA-β-Gal levels by FDG flow cytometry in primary chondrocytes exposed to etoposide and OSM. To be noted: for SA-β-Gal level (Mean ± SEM): Eto-20 μM + OSM = 1; for effect on SA-β-Gal levels, in words: Eto + OSM, AP 2.3 and 10 μg/ml, PA 7.7 and 10 μg/ml individually (FIG. 7b).
Source text: Chondrocytes from human OA hip cartilage, were isolated as described in (Maneiro E, Martin M A, de Andres M C, López-Armada M J, Fernandez-Sueiro J L, del Hoyo P, et al. Mitochondrial respiratory activity is altered in osteoarthritic human articular chondrocytes. Arthritis and rheumatism. 2003; 48 (3): 700-8)) from 18 patients from total hip arthroplasty (5 male and 13 female patients with a mean±SD age of 86±7.17, 79.71±13.56 years respectively)
Human articular chondrocytes and T/C28a2 cell line, were equilibrated overnight in Dulbecco's Modified Eagle Medium (DMEM) (Gibco, Grand Island, NY, USA) supplemented with 10% fetal bovine serum (FBS), penicillin (100 U/ml) and streptomycin (100 μg/ml) (Gibco) in a humidified 5% CO2 atmosphere at 37° C.
as §1, §2
These conditions were evaluated with and without 10 μg/ml APPA for 24 h. Fluorescein di-β-D-galactopyranoside (10 µM) was then added to the pretreatment medium. At the end of incubation, cultures were washed with PBS, resuspended by trypsinization and analysed immediately using a FACScalibour flow cytometer (Becton Dickinson). Data were acquired and analysed with Cellquest software (Becton Dickinson). Each fluorescein signal was measured on an FL1 detector and β-galactosidase activity was estimated using the median fluorescence intensity (arbitrary units) of the cell population.
Another series has as its system CDKN1A (p21). As to the kind of experiment: CDKN1A (p21) relative mRNA expression by RT-PCR. Conditions: primary human chondrocytes. The text has this: CDKN1 (p21) is a genetic marker for cell senescence that codes for cyclin dependent kinase inhibitor 1A, a regulator of cell cycle progression. The expression of this gene is tightly controlled by the tumor suppressor protein p53. Activated p53 increases the expression of p21 which contributes to senescence. […] Cell-cycle arrest due to an increase in expression of genes that inhibit proliferation, the changes that occur in senescent cells can also result in the increased production of cytokines, growth factors, and matrix metalloproteinase (Loeser R F. Aging and osteoarthritis: the role of chondrocyte senescence and aging changes in the cartilage matrix. Osteoarthritis Cartilage. 2009 August; 17 (8): 971-9). Relative mRNA expression levels of CDKN1 were detected by quantitative real-time (RT)-PCR in presence of positive stimuli +/−10 μg/ml APPA. Data were obtained from eight independent donors. Values are presented as mean±SEM and analyzed by Mann Whitney test (*p≤0.05). RNA extraction was achieved using TRIzol® (Sigma-Aldrich), following the manufacturer's protocol. 0.5 μg of RNA was reversely transcribed into cDNA using Super Script VILO (Thermofisher Scientific, Waltham, Massachusetts, USA) following the manufacturer's instructions. RT-PCR was developed in a LightCycler 480-II Instrument (Roche, Mannheim, Germany) using TaqMan Universal Master Mix (Roche). Analysis of the results was carried out using Qbase+ version 2.5 software (Biogazelle, Ghent, Belgium). Gene expression was calculated relative to the housekeeping gene Glyceraldehyde-3-Phosphate Dehydrogenase (GAPDH). Relative mRNA expression levels of cyclin dependent kinase inhibitor 1A (CDKN1) were detected by quantitative real-time (RT)-PCR in the same manner as above. Data were obtained from six independent donors.

For another series, the system named is BECN-1. As to the kind of experiment: BECN-1 gene expression by RT-PCR. Conditions: primary human chondrocytes; Eto + OSM + PA 7.7 μg/ml (FIG. 7d). The protocol:
RNA extraction was achieved using TRIzol® (Sigma-Aldrich), following the manufacturer's protocol. 0.5 μg of RNA was reversely transcribed into cDNA using Super Script VILO (Thermofisher Scientific, Waltham, Massachusetts, USA) following the manufacturer's instructions. RT-PCR was developed in a LightCycler 480-II Instrument (Roche, Mannheim, Germany) using TaqMan Universal Master Mix (Roche). Analysis of the results was carried out using Qbase+ version 2.5 software (Biogazelle, Ghent, Belgium). Gene expression was calculated relative to the housekeeping gene Glyceraldehyde-3-Phosphate Dehydrogenase (GAPDH). […] BECN-1 is a regulator of autophagy; the encoded protein, Beclin1, is a component of the phosphatidylinositol-3-kinase (PI3K) complex which mediates vesicle-trafficking processes. Autophagy is a self-degradative process that is important for balancing sources of energy at critical times during development and in response to cell stress. Although autophagy is not a type of cell death, it is important for cartilage homeostasis. […]

Consider `COc1cc(C(C)=O)ccc1O` [AP, 4-hydroxy-3-methoxyacetophenone], for which the “SA-β-Gal level (Mean ± SEM)” value in series [1] (Eto-5 μM + AP 2.3 μg/ml) came out at 0.9191; in series [1] (Eto-5 μM + AP 10 μg/ml), 0.8948; in series [3] (Eto + OSM + AP-2.3 μg/ml), 0.9947; in series [3] (Eto + OSM + AP-10 μg/ml) it was 1.01. Further, the “percentage of (non-viable) cells positive for DRAQ7” value in series [2] (human, 10 μg/ml) was found to be 5.05%. The “effect on SA-β-Gal levels, in words” value in series [3] is listed as “no significant effects”. Further, the “expression level of CDKN1A (p21) (Mean ± SEM)” value in the series with CDKN1A (p21) (Eto 20 μM + OSM 10 ng/ml + AP 2.3 μg/ml) came out at 1.0102 ± 0.25; in the series on CDKN1A (p21) (Eto 20 μM + OSM 10 ng/ml + AP 10 μg/ml), 1.617 ± 0.32. For the same molecule, in the series on CDKN1A (p21) (Eto + OSM, AP at 2.3 and 10 μg/ml), the “effect on CDKN1A (p21) expression, in words” value was “neither concentration of AP nor PA 7.7 μg/ml had any significant effect”.

In the case of `COc1ccc(C(C)=O)c(O)c1` [PA, 2-hydroxy-4-methoxyacetophenone], in series [2] (TC28a2, APPA 10, AP 2.3 and 10, PA 7.7 and 10 μg/ml), the “effect on cell viability (DRAQ7)” value is “do not affect cell viability”. The “SA-β-Gal level (Mean ± SEM)” value worked out at 0.9844 in series [3] (Eto + OSM + PA-7.7 μg/ml) and 0.9622 in series [3] (Eto + OSM + PA-10 μg/ml). Further, the “effect on SA-β-Gal levels, in words” value in series [3] is reported as “no significant effects”. Further, the “expression level of CDKN1A (p21) (Mean ± SEM)” value with CDKN1A (p21) (Eto 20 μM + OSM 10 ng/ml + 10 μg/ml (PA 10 μg/ml per text)) was 0.869 ±0.17 and 0.8635 ± 0.17. Moreover, the BECN-1 gene expression result with BECN-1 was “significantly counteracted”.
